{
  "source": "patent US12275729B2",
  "about": "(Merck Sharp & Dohme LLC, priority 2017, dated 2025)",
  "data": [
    {"target": "IDO1 (Homo sapiens, UniProt P14902)", "sequence (P14902 whole entry)": "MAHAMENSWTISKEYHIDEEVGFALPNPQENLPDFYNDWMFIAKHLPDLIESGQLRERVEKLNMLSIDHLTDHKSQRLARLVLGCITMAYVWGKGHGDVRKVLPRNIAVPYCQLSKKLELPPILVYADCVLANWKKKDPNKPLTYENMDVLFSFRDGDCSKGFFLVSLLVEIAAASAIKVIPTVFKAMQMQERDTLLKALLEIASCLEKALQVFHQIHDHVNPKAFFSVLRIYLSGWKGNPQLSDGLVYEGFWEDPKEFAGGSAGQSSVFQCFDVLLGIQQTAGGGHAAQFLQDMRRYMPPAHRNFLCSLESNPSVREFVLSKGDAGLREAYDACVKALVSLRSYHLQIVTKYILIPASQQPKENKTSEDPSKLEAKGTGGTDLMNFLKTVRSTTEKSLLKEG", "assay": "IDO1 Cellular Assay in HeLa Cells Stimulated with IFNγ", "assay_type": "cell-based", "settings": "about 48 hours, read-out: Hela IC50", "units": {"IC50": "nM"}, "values": [
      {"smiles": "C[C@H](C(=O)Nc1ccc(F)cc1)c1ccc2c(c1)CCCN2C(=O)CC(F)(F)F", "note": "[Example 91, (2S)-N-(4-fluorophenyl)-2-[1-(3,3,3-trifluoropropanoyl)-1,2,3,4-tetrahydroquinolin-6-yl]propanamide]", "IC50": 105},
      {"smiles": "O=C(N1CCCc2cc(C3(C(=O)Nc4ccc(F)cn4)CCC3)ccc21)C1(F)CC1", "note": "[Example 99, 1-[1-(1-fluorocyclopropane-1-carbonyl)-1,2,3,4-tetrahydroquinolin-6-yl]-N-(5-fluoropyridin-2-yl)cyclobutane-1-carboxamide]", "IC50": 16.8},
      {"smiles": "CN(C)C(=O)N1CCCc2cc(C3(C(=O)Nc4ccc(F)cn4)CCC3)ccc21", "note": "[Example 102, 6-{1-[(5-fluoropyridin-2-yl)carbamoyl]cyclobutyl}-N,N-dimethyl-3,4-dihydroquinoline-1(2H)-carboxamide]", "IC50": 149},
      {"smiles": "O=C(N1CCCC1)N1CCCc2cc(C3(C(=O)Nc4ccc(F)cn4)CCC3)ccc21", "note": "[Example 103, N-(5-fluoropyridin-2-yl)-1-[1-(pyrrolidine-1-carbonyl)-1,2,3,4-tetrahydroquinolin-6-yl]cyclobutane-1-carboxamide]", "IC50": 76.7},
      {"smiles": "Cc1cc(C(=O)N2CCCc3cc(C4(C(=O)Nc5ccc(F)cn5)CCC4)ccc32)ncn1", "note": "[Example 107, N-(5-fluoropyridin-2-yl)-1-[1-(6-methylpyrimidine-4-carbonyl)-1,2,3,4-tetrahydroquinolin-6-yl]cyclobutane-1-carboxamide]", "IC50": 12.8},
      {"smiles": "N#Cc1cccc(C(=O)N2CCCc3cc(C4(C(=O)Nc5ccc(F)cn5)CCC4)ccc32)c1", "note": "[Example 108, 1-[1-(3-cyanobenzene-1-carbonyl)-1,2,3,4-tetrahydroquinolin-6-yl]-N-(5-fluoropyridin-2-yl)cyclobutane-1-carboxamide]", "IC50": 4.9},
      {"smiles": "Cc1n[nH]c(C(=O)N2CCCc3cc(C4(C(=O)Nc5ccc(F)cc5)CCC4)ccc32)n1", "note": "[Example 109, N-(4-fluorophenyl)-1-[1-(3-methyl-1H-1,2,4-triazole-5-carbonyl)-1,2,3,4-tetrahydroquinolin-6-yl]cyclobutane-1-carboxamide]", "IC50": 16.2},
      {"smiles": "O=C(c1nnc(C(F)(F)F)[nH]1)N1CCCc2cc(C3(C(=O)Nc4ccc(F)cc4)CCC3)ccc21", "note": "[Example 110, N-(4-fluorophenyl)-1-{1-[5-(trifluoromethyl)-4H-1,2,4-triazole-3-carbonyl]-1,2,3,4-tetrahydroquinolin-6-yl}cyclobutane-1-carboxamide]", "IC50": 248},
      {"smiles": "Cc1c(C(=O)N2CCCc3cc(C4(C(=O)Nc5ccc(F)cc5)CCC4)ccc32)cnn1C", "note": "[Example 111, 1-[1-(1,5-dimethyl-1H-pyrazole-4-carbonyl)-1,2,3,4-tetrahydroquinolin-6-yl]-N-(4-fluorophenyl)cyclobutane-1-carboxamide]", "IC50": 65.5},
      {"smiles": "CCn1cc(C(=O)N2CCCc3cc(C4(C(=O)Nc5ccc(F)cc5)CCC4)ccc32)cn1", "note": "[Example 112, 1-[1-(1-ethyl-1H-pyrazole-4-carbonyl)-1,2,3,4-tetrahydroquinolin-6-yl]-N-(4-fluorophenyl)cyclobutane-1-carboxamide]", "IC50": 2.7},
      {"smiles": "O=C(c1cnn(C2CC2)c1)N1CCCc2cc(C3(C(=O)Nc4ccc(F)cc4)CCC3)ccc21", "note": "[Example 113, 1-[1-(1-cyclopropyl-1H-pyrazole-4-carbonyl)-1,2,3,4-tetrahydroquinolin-6-yl]-N-(4-fluorophenyl)cyclobutane-1-carboxamide]", "IC50": 65.8},
      {"smiles": "O=C(c1cnn(CC(F)F)c1)N1CCCc2cc(C3(C(=O)Nc4ccc(F)cc4)CCC3)ccc21", "note": "[Example 114, 1-{1-[1-(2,2-difluoroethyl)-1H-pyrazole-4-carbonyl]-1,2,3,4-tetrahydroquinolin-6-yl}-N-(4-fluorophenyl)cyclobutane-1-carboxamide]", "IC50": 86.1},
      {"smiles": "O=C(c1cc(C(F)(F)F)n[nH]1)N1CCCc2cc(C3(C(=O)Nc4ccc(F)cc4)CCC3)ccc21", "note": "[Example 116, N-(4-fluorophenyl)-1-{1-[3-(trifluoromethyl)-1H-pyrazole-5-carbonyl]-1,2,3,4-tetrahydroquinolin-6-yl}cyclobutane-1-carboxamide]", "IC50": 51.4},
      {"smiles": "O=C(c1cc(C2CC2)n[nH]1)N1CCCc2cc(C3(C(=O)Nc4ccc(F)cc4)CCC3)ccc21", "note": "[Example 117, 1-[1-(3-cyclopropyl-1H-pyrazole-5-carbonyl)-1,2,3,4-tetrahydroquinolin-6-yl]-N-(4-fluorophenyl)cyclobutane-1-carboxamide]", "IC50": 17.7},
      {"smiles": "Cc1ccnc(C(=O)N2CCCc3cc(C4(C(=O)Nc5ccc(F)cn5)CCC4)ccc32)n1", "note": "[Example 118, N-(5-fluoropyridin-2-yl)-1-[1-(4-methylpyrimidine-2-carbonyl)-1,2,3,4-tetrahydroquinolin-6-yl]cyclobutane-1-carboxamide]", "IC50": 1.5},
      {"smiles": "CC(C)(C)OC(=O)N1CCCc2cc(C3(C(=O)NC45CC(C4)C5)CCC3)ccc21", "note": "[Example 119, tert-butyl 6-{1-[(bicyclo[1.1.1]pentan-1-yl)carbamoyl]cyclobutyl}-3,4-dihydroquinoline-1(2H)-carboxylate]", "IC50": 87.6},
      {"smiles": "O=C(c1cocn1)N1CCCc2cc(C3(C(=O)Nc4ccc(F)cn4)CCC3)ccc21", "note": "[Example 121, N-(5-fluoropyridin-2-yl)-1-[1-(1,3-oxazole-4-carbonyl)-1,2,3,4-tetrahydroquinolin-6-yl]cyclobutane-1-carboxamide]", "IC50": 4.1},
      {"smiles": "O=C(Nc1ccc(F)cn1)C1(c2ccc3c(c2)CCCN3S(=O)(=O)N2CCCC2)CCC1", "note": "[Example 122, N-(5-fluoropyridin-2-yl)-1-{1-[(pyrrolidin-1-yl)sulfonyl]-1,2,3,4-tetrahydroquinolin-6-yl}cyclobutane-1-carboxamide]", "IC50": 67.1},
      {"smiles": "CS(=O)(=O)N1CCCc2cc(C3(C(=O)Nc4ccc(F)cn4)CCC3)ccc21", "note": "[Example 123, N-(5-fluoropyridin-2-yl)-1-[1-(methylsulfonyl)-1,2,3,4-tetrahydroquinolin-6-yl]cyclobutane-1-carboxamide]", "IC50": 34.1},
      {"smiles": "O=C(Nc1ccc(F)cn1)C1(c2ccc3c(c2)CCCN3S(=O)(=O)C2CC2)CCC1", "note": "[Example 124, 1-[1-(cyclopropylsulfonyl)-1,2,3,4-tetrahydroquinolin-6-yl]-N-(5-fluoropyridin-2-yl)cyclobutane-1-carboxamide]", "IC50": 26.2},
      {"smiles": "C[C@@H](NC(=O)c1ccc(F)cc1)c1ccc2c(n1)CCCN2C(=O)[C@H]1CCOC1", "note": "[Example 131, 4-fluoro-N-((R)-1-(5-((S)-tetrahydrofuran-3-carbonyl)-5,6,7,8-tetrahydro-1,5-naphthyridin-2-yl)ethyl)benzamide]", "IC50": 356},
      {"smiles": "CC(NC(=O)c1ccc(F)cc1)c1ccc2c(n1)CCCN2C(=O)[C@@H]1CCCCO1", "note": "(stereo partly drawn) [Example 132, 4-fluoro-N-(1-(5-((S)-tetrahydro-2H-pyran-2-carbonyl)-5,6,7,8-tetrahydro-1,5-naphthyridin-2-yl)ethyl)benzamide]", "IC50": 48.7},
      {"smiles": "C[C@@H](NC(=O)c1ccc(F)cc1)c1ccc2c(n1)CCCN2C(=O)C1CC1(F)F", "note": "(stereo partly drawn) [Example 133, N-{(1R)-1-[5-(2,2-difluorocyclopropane-1-carbonyl)-5,6,7,8-tetrahydro-1,5-naphthyridin-2-yl]ethyl}-4-fluorobenzamide]", "IC50": 63.6},
      {"smiles": "CC(NC(=O)c1ccc(F)cc1)c1ccc2c(n1)CCCN2C(=O)C1(C)CCCCO1", "note": "(stereo not shown) [Example 136, 4-fluoro-N-{1-[5-(2-methyloxane-2-carbonyl)-5,6,7,8-tetrahydro-1,5-naphthyridin-2-yl]ethyl}benzamide]", "IC50": 540},
      {"smiles": "CC(NC(=O)c1ccc(F)cc1)c1ccc2c(n1)CCCN2C(=O)C1COC1", "note": "(stereo not shown) [Example 142, 4-fluoro-N-{1-[5-(oxetane-3-carbonyl)-5,6,7,8-tetrahydro-1,5-naphthyridin-2-yl]ethyl}benzamide]", "IC50": 1540},
      {"smiles": "CC(NC(=O)c1ccc(F)cc1)c1ccc2c(n1)CCCN2C(=O)c1cccc(C#N)c1", "note": "(stereo not shown) [Example 147, N-{1-[5-(3-cyanobenzene-1-carbonyl)-5,6,7,8-tetrahydro-1,5-naphthyridin-2-yl]ethyl}-4-fluorobenzamide]", "IC50": 1.7},
      {"smiles": "CC(NC(=O)c1ccc(F)cc1)c1ccc2c(n1)CCCN2C(=O)c1cccc(Cl)c1Cl", "note": "(stereo not shown) [Example 148, N-{1-[5-(2,3-dichlorobenzene-1-carbonyl)-5,6,7,8-tetrahydro-1,5-naphthyridin-2-yl]ethyl}-4-fluorobenzamide]", "IC50": 2.5},
      {"smiles": "COC(C(=O)Nc1ccc(F)cn1)c1ccc2c(c1)CCCN2C(=O)C1CC1", "note": "(stereo not shown) [Example 155, 2-(1-(cyclopropanecarbonyl)-1,2,3,4-tetrahydroquinolin-6-yl)-N-(5-fluoropyridin-2-yl)-2-methoxyacetamide]", "IC50": 273},
      {"smiles": "CC(C(=O)Nc1ccc(F)cc1)c1ccc2c(n1)CCCN2C(=O)C1CCCCO1", "note": "(stereo not shown) [Example 158, N-(4-fluorophenyl)-2-[5-(oxane-2-carbonyl)-5,6,7,8-tetrahydro-1,5-naphthyridin-2-yl]propanamide]", "IC50": 38.1},
      {"smiles": "CC(C(=O)Nc1ccc(F)cc1)c1ccc2c(n1)CCCN2C(=O)C1CCOCC1", "note": "(stereo not shown) [Example 166, N-(4-fluorophenyl)-2-[5-(oxane-4-carbonyl)-5,6,7,8-tetrahydro-1,5-naphthyridin-2-yl]propanamide]", "IC50": 16.7},
      {"smiles": "CC(C(=O)Nc1ccc(F)cc1)c1ccc2c(n1)CCCN2C(=O)C1CCOCC1", "note": "(stereo not shown) [Example 167, N-(4-fluorophenyl)-2-[5-(oxane-4-carbonyl)-5,6,7,8-tetrahydro-1,5-naphthyridin-2-yl]propanamide]", "IC50": 5.1},
      {"smiles": "O=C(NC1(c2ccc3c(n2)CCCN3C(=O)C2CC2)CC1)c1ccc(F)cc1", "note": "[Example 168, N-{1-[5-(cyclopropanecarbonyl)-5,6,7,8-tetrahydro-1,5-naphthyridin-2-yl]cyclopropyl}-4-fluorobenzamide]", "IC50": 25.7},
      {"smiles": "O=C(C1CC1)N1CCCc2nc(C3(C(=O)Nc4ccc(F)cn4)CCC3)ccc21", "note": "[Example 169, 1-[5-(cyclopropanecarbonyl)-5,6,7,8-tetrahydro-1,5-naphthyridin-2-yl]-N-(5-fluoropyridin-2-yl)cyclobutane-1-carboxamide]", "IC50": 55.7},
      {"smiles": "O=C(NC1(c2ccc3c(n2)CCCN3C(=O)C2CCCCO2)CC1)c1ccc(F)cc1", "note": "(stereo not shown) [Example 170, 4-fluoro-N-{1-[5-(oxane-2-carbonyl)-5,6,7,8-tetrahydro-1,5-naphthyridin-2-yl]cyclopropyl}benzamide]", "IC50": 2.4}
    ]}
  ]
}
